One may read the IC50 as the concentration needed to halve the response being measured. Read a high IC50 as lower potency.

The record followed here is patent US12145927B2 (BRISTOL-MYERS SQUIBB COMPANY, priority 2018, dated 2024).

The target in this assay is T1, human IDO1 (Homo sapiens, UniProt P14902).
T1 construct: expressed in transfected cells
T1 sequence (P14902 whole entry): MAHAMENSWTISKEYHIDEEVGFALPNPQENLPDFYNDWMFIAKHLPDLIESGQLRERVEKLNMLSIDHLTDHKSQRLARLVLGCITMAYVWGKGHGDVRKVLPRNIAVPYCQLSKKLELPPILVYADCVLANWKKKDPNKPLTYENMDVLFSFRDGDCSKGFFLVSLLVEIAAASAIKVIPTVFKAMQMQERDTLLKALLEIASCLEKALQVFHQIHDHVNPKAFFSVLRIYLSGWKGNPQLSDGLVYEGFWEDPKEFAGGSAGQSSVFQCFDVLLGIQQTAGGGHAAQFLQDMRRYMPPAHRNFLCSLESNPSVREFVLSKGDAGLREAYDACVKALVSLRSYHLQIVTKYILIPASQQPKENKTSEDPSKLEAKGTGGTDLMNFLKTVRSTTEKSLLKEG
In words: IDO inhibition assay in human IDO1/HEK293 cells (IDO1 HEK Human). It is filed as cell-based. The following applies: HEK293 cells stably expressing human IDO1; 20 hours incubation; absorbance at 490 nm after Ehrlich reagent. The procedure: HEK293 cells were transfected with a pCDNA-based mammalian expression vector harboring human IDO1 cDNA (NM 002164.2) by electroporation. They were cultured in medium (DMEM with 10% FBS) containing 1 mg/ml G418 for two weeks. Clones of HEK293 cells that stably expressed human IDO1 protein were selected and expanded for IDO inhibition assay.
The human IDO1/HEK293 cells were seeded at 10,000 cells per 50 μL per well with RPMI/phenol red free media contains 10% FBS in a 384-well black wall clear bottom tissue culture plate (Matrix Technologies LLC) 100 nL of certain concentration of compound was then added to each well using ECHO liquid handling systems. The cells were incubated for 20 hours in 37° C. incubator with 5% CO2.
The compound treatments were stopped by adding trichloroacetic acid (Sigma-Aldrich) to a final concentration at 0.2%. The cell plate was further incubated at 50° C. for 30 minute. The equal volume supernatant (20 μL) and 0.2% (w/v) Ehrlich reagent (4-dimethylaminobenzaldehyde, Sigma-Aldrich) in glacial acetic acid were mixed in a new clear bottom 384-well plate. This plate was then incubated at RT for 30 minute. The absorbance at 490 nm was measured on Envision plate reader.
Compound IC50 values were calculated using the counts of 500 nM of a reference standard treatment as one hundred percent inhibition, and counts of no compound but DMSO treatment as zero percent inhibition.
Compound `Cc1ccc(NC(=O)Nc2cc(-c3ccccc3-c3nnn[nH]3)cc3c2O[C@H](C)[C@H]3c2ccccc2)cc1` (relative stereo) [Example 115, rel-1-((2R,3 S)-5-(2-(1H-tetrazol-5-yl)phenyl)-2-methyl-3-phenyl-2,3-dihydrobenzofuran-7-yl)-3-(p-tolyl)urea] had a half-maximal inhibitory concentration (IC50) of 28 nM.

As to `CC[C@@H]1Oc2c(NC(=O)Nc3ccc(C)cc3)cc(-c3ccccc3-c3nnn[nH]3)cc2[C@H]1c1ccccc1` (racemic) [Example 90, (+/−)-1-((trans)-5-(2-(1H-tetrazol-5-yl)phenyl)-3-phenyl-2-ethyl-2,3-dihydrobenzofuran-7-yl)-3-(p-tolyl)urea], 18 nM corresponded to half-maximal inhibition (IC50).

Turning to `C=C(C)[C@H]1Oc2c(NC(=O)Nc3ccc(C)cc3)cc(-c3ccccc3-c3nnn[nH]3)cc2[C@@H]1c1ccccc1` (racemic) [Example 93, (+/−)-1-((trans)-5-(2-(1H-tetrazol-5-yl)phenyl)-3-phenyl-2-(prop-1-en-2-yl)-2,3-dihydrobenzofuran-7-yl)-3-(p-tolyl)urea], the IC50 was determined as 9.1 nM.

Regarding `Cc1ccc(CC(=O)Nc2cc(-c3ccccc3-c3nnn[nH]3)cc3c2OCCCC3C)cc1` (stereo not drawn) [Example 32, N-(7-(2-(1H-tetrazol-5-yl)phenyl)-5-methyl-2,3,4,5-tetrahydrobenzo[b]oxepin-9-yl)-2-(p-tolyl)acetamide], the midpoint of inhibition, the IC50, lay at 419 nM.

For `C=C[C@H]1Oc2c(NC(=O)Cc3ccc(C)cc3)cc(-c3ccccc3-c3nnn[nH]3)cc2[C@@H]1c1ccccc1` (racemic) [Example 91, (+/−)-N-((trans)-5-(2-(1H-tetrazol-5-yl)phenyl)-3-phenyl-2-vinyl-2,3-dihydrobenzofuran-7-yl)-2-(p-tolyl)acetamide], the half-maximal inhibitory concentration (IC50) was determined as 89 nM.

In turn, `Cc1ccc(NC(=O)Nc2cc(-c3ccccc3-c3nnn[nH]3)cc3c2OC(C)(C)C3c2ccccc2)cc1` (racemic) [Example 123, (±)-1-(5-(2-(1H-Tetrazol-5-yl)phenyl)-2,2-dimethyl-3-phenyl-2,3-dihydrobenzofuran-7-yl)-3-(p-tolyl)urea] yielded an IC50 of 6.3 nM.

The compound `Cc1ccc(CC(=O)Nc2cc(-c3ccccc3-c3nnn[nH]3)cc3c2OCCCC3c2ccccc2)cc1` (single isomer, unassigned) [Example 2-3, N-(7-(2-(1H-tetrazol-5-yl)phenyl)-5-phenyl-2,3,4,5-tetrahydrobenzo[b]oxepin-9-yl)-2-(p-tolyl)acetamide] showed a half-maximal inhibitory concentration (IC50) of 21.4 nM.

On to `FC(F)(F)c1cnc(Nc2cc(-c3ccccc3-c3nnn[nH]3)cc3c2OCCCC3c2ccccc2)nc1` (stereo not drawn) [Example 54, N-(7-(2-(1H-tetrazol-5-yl)phenyl)-5-phenyl-2,3,4,5-tetrahydrobenzo[b]oxepin-9-yl)-5-(trifluoromethyl)pyrimidin-2-amine], for which 432 nM corresponded to half-maximal inhibition (IC50).

As to `CCC(C)C1CCCOc2c(NC(=O)Nc3ccc(C)cc3)cc(-c3ccccc3-c3nnn[nH]3)cc21` (single isomer, unassigned) [Example 29, 1-(7-(2-(1H-tetrazol-5-yl)phenyl)-5-(sec-butyl)-2,3,4,5-tetrahydrobenzo[b]oxepin-9-yl)-3-(p-tolyl)urea], the IC50 amounted to 18 nM.

Regarding `O=C(Nc1ccccc1F)Nc1cc(-c2ccccc2-c2noc(=O)[nH]2)cc2c1OCCCC2C1CC1` (stereo not drawn) [Example 35, 1-(5-cyclopropyl-7-(2-(5-oxo-4,5-dihydro-1,2,4-oxadiazol-3-yl)phenyl)-2,3,4,5-tetrahydrobenzo[b]oxepin-9-yl)-3-(2-fluorophenyl)urea], the IC50 is 19.7 nM.

Consider `Cc1cnc(Nc2cc(-c3ccccc3-c3nnn[nH]3)cc3c2OCCCC3c2ccccc2)nc1` (racemic) [55 (Rac), N-(7-(2-(1H-tetrazol-5-yl)phenyl)-5-phenyl-2,3,4,5-tetrahydrobenzo[b]oxepin-9-yl)-5-methylpyrimidin-2-amine], for which 155 nM corresponded to half-maximal inhibition (IC50).

The compound `Cc1ccc(NC(=O)Nc2cc(-c3ccccc3-c3nnn[nH]3)cc3c2OCCCC3C(C)C)cc1` (racemic) [Example 24, 1-(7-(2-(1H-tetrazol-5-yl)phenyl)-5-isopropyl-2,3,4,5-tetrahydrobenzo[b]oxepin-9-yl)-3-(p-tolyl)urea] had an IC50 of 4.4 nM.

`C=C[C@H]1Oc2c(NC(=O)Nc3ccc(C)cc3)cc(-c3ccccc3-c3nnn[nH]3)cc2[C@@H]1CCC(F)(F)F` (single isomer, unassigned) [Example 129, 1-((trans)-5-(2-(1H-tetrazol-5-yl)phenyl)-3-(3,3,3-trifluoropropyl)-2-vinyl-2,3-dihydrobenzofuran-7-yl)-3-(p-tolyl)urea]: the IC50 is 16 nM.

`Cc1ccc(NC(=O)Nc2cc(-c3cc(F)ccc3C(=O)O)cc3c2O[C@@H](C)[C@H]3c2ccccc2)cc1` (relative stereo) [Example 114, rel-4-fluoro-2-((2R,3R)-2-methyl-3-phenyl-7-(3-(p-tolyl)ureido)-2,3-dihydrobenzofuran-5-yl)benzoic acid] returned a half-maximal inhibitory concentration (IC50) of 1300 nM.

`c1ccc(C2CCCOc3c(Nc4nc5ccccc5o4)cc(-c4ccccc4-c4nnn[nH]4)cc32)cc1` (single isomer, unassigned) [53 (En. 1), N-(7-(2-(1H-tetrazol-5-yl)phenyl)-5-phenyl-2,3,4,5-tetrahydrobenzo[b]oxepin-9-yl) benzo[d] oxazol-2-amine] registered an IC50 of 216 nM.

Regarding `O=C(Nc1ccc(C2CC2)cc1F)Nc1cc(-c2ccccc2-c2nnn[nH]2)cc2c1OCCCC2c1ccccc1` (stereo not drawn) [Example 6, 1-(7-(2-(1H-tetrazol-5-yl)phenyl)-5-phenyl-2,3,4,5-tetrahydrobenzo[b]oxepin-9-yl)-3-(4-cyclopropyl-2-fluorophenyl)urea], it took 70 nM to reach half-maximal inhibition (IC50).

On to `O=C(Nc1ccccc1F)Nc1cc(-c2ccccc2-c2nnn[nH]2)cc2c1OCCCC2c1ccccc1` (single isomer, unassigned) [10 (En. 1), 1-(7-(2-(1H-tetrazol-5-yl)phenyl)-5-phenyl-2,3,4,5-tetrahydrobenzo[b]oxepin-9-yl)-3-(2-fluorophenyl)urea], for which the IC50 came to 1450 nM.

Compound `Cc1ccc(CC(=O)Nc2cc(-c3ccccc3-c3nnn[nH]3)cc3c2OCCCC3C2CC2)c(F)c1` (single isomer, unassigned) [39 (En. 2)] had a half-inhibitory concentration (IC50) of 32.6 nM.

`Cc1ccc(CC(=O)Nc2cc(-c3ccccc3-c3nnn[nH]3)cc3c2OCCCC3C2CC2)cc1` (racemic) [37 (Rac), N-(7-(2-(1H-tetrazol-5-yl)phenyl)-5-cyclopropyl-2,3,4,5-tetrahydrobenzo[b]oxepin-9-yl)-2-(p-tolyl)acetamide] showed an IC50 of 117 nM.

With `O=C(Cc1ccccc1F)Nc1cc(-c2ccccc2-c2nnn[nH]2)cc2c1OCCCC2C1CC1` (single isomer, unassigned) [40 (En. 2), N-(7-(2-(1H-tetrazol-5-yl)phenyl)-5-cyclopropyl-2,3,4,5-tetrahydrobenzo[b]oxepin-9-yl)-2-(2-fluorophenyl)acetamide], the midpoint of inhibition, the IC50, lay at 58.6 nM.

As to `Cc1ccc(-c2noc(Nc3cc(-c4ccccc4-c4nnn[nH]4)cc4c3OCCCC4c3ccccc3)n2)cc1` (single isomer, unassigned) [26 (En. 1), N-(7-(2-(1H-tetrazol-5-yl)phenyl)-5-phenyl-2,3,4,5-tetrahydrobenzo[b]oxepin-9-yl)-3-(p-tolyl)-1,2,4-oxadiazol-5-amine], the midpoint of inhibition, the IC50, lay at 2560 nM.

In the case of `CCC(C)C1CCCOc2c(NC(=O)Cc3ccc(C)cc3)cc(-c3ccccc3-c3nnn[nH]3)cc21` (single isomer, unassigned) [30 (Dia. mix 2), N-(7-(2-(1H-tetrazol-5-yl)phenyl)-5-(sec-butyl)-2,3,4,5-tetrahydrobenzo[b]oxepin-9-yl)-2-(p-tolyl)acetamide], the IC50 was found to be 11.7 nM.

Turning to `O=C(Nc1ccccc1F)Nc1cc(-c2ccccc2-c2nnn[nH]2)cc2c1OCCCC2C1CC1` (single isomer, unassigned) [38 (En. 2), 1-(7-(2-(1H-tetrazol-5-yl)phenyl)-5-cyclopropyl-2,3,4,5-tetrahydrobenzo[b]oxepin-9-yl)-3-(2-fluorophenyl)urea], the half-maximal inhibitory concentration (IC50) came to 19.4 nM.

`Cc1ccc(NC(=O)Nc2cc(-c3ccccc3C(=O)O)cc3c2OCCCC3c2ccccc2)cc1` (single isomer, unassigned) [Example 8-2, 2-(5-phenyl-9-(3-(p-tolyl)ureido)-2,3,4,5-tetrahydrobenzo[b]oxepin-7-yl)benzoic acid] came in with an IC50 of 970 nM.

With `Cc1ccc(NC(=O)Nc2cc(-c3ccccc3C(N)=O)cc3c2OCCCC3c2ccccc2)cc1` (stereo not drawn) [Example 7, 2-(5-phenyl-9-(3-(p-tolyl)ureido)-2,3,4,5-tetrahydrobenzo[b]oxepin-7-yl)benzamide], the IC50 was determined as 40.8 nM.

`CC1(C)Oc2c(NC(=O)Nc3ccc(C(F)(F)F)nc3)cc(-c3ccccc3C(=O)O)cc2C1c1ccccc1` (racemic) [Example 128, (±)-2-(2,2-Dimethyl-3-phenyl-7-(3-(6-(trifluoromethyl)pyridin-3-yl)ureido)-2,3-dihydrobenzofuran-5-yl)benzoic acid]: 2300 nM corresponded to half-maximal inhibition (IC50).

In the case of `Cc1ccc(NC(=O)Nc2cc(-c3ccccc3-c3nnn[nH]3)cc3c2OCC(O)C(O)C3c2ccccc2)cc1` (single isomer, unassigned) [9 (En. 2), 1-(7-(2-(1H-tetrazol-5-yl)phenyl)-3,4-dihydroxy-5-phenyl-2,3,4,5-tetrahydrobenzo[b]oxepin-9-yl)-3-(p-tolyl)urea], the half-maximal inhibitory concentration (IC50) worked out at 579 nM.
